Assay results: ChEMBL document CHEMBL5576127, “New CDDO Arylboronate Ester Derivatives with High Selectivity and Low Toxicity” (J Med Chem, 2024)
Activity calls are given as the source filed them. The rule behind the calls is not given here.

Tests used:
[1] = Cytotoxicity against human GES1 cells assessed as inhibition of cell proliferation incubated for 48 hrs by MTT assay; assay type: toxicity, cell-based
[2] = Cytotoxicity against human MCF-10A cells assessed as inhibition of cell proliferation incubated for 48 hrs by MTT assay; assay type: toxicity, cell-based
BGC-823 [3] = assay: Antiproliferative activity against human BGC-823 cells assessed as inhibition of cell proliferation incubated for 48 hrs by MTT assay; assay type: functional, cell-based; details: BGC-823, 48 h
[4] = Cytotoxicity against human L02 cells assessed as inhibition of cell proliferation incubated for 48 hrs by MTT assay; assay type: toxicity, cell-based
MCF7 = assay: Antiproliferative activity against human MCF7 cells assessed as inhibition of cell proliferation incubated for 48 hrs by MTT assay; assay type: functional, cell-based; details: MCF7, 48 h
HepG2 = assay: Antiproliferative activity against human HepG2 cells assessed as inhibition of cell proliferation incubated for 48 hrs by MTT assay; assay type: functional, cell-based; details: HepG2, 48 h
[5] = Acute toxicity in ip dosed ICR mouse assessed as mortality rate by measuring ratio at 1.80 logarithm of dose relative to total number of mouse; assay type: organism-based; details: in vivo
BGC-823 [6] = assay: Induction of apoptosis in human BGC-823 cells assessed as late apoptotic cells at 1 uM incubated for 48 hrs by Annexin V-FITC/PI staining based flow cytometric analysis ( Rvb = 5.61 %); assay type: functional
[7] = Acute toxicity in ip dosed ICR mouse assessed as mortality rate by measuring ratio at 1.68 logarithm of dose relative to total number of mouse; assay type: organism-based; details: in vivo
NCI-N87 = assay: Antiproliferative activity against human NCI-N87 cells assessed as inhibition of cell proliferation incubated for 48 hrs by MTT assay; assay type: functional, cell-based; details: NCI-N87, 48 h
[8] = Acute toxicity in ip dosed ICR mouse assessed as animal death at 2.16 logarithm of dose; assay type: organism-based; details: in vivo
[9] = Acute toxicity in ip dosed ICR mouse assessed as animal death at 1.57 logarithm of dose; assay type: organism-based; details: in vivo
BGC-823 [10] = assay: Induction of ROS generation in human BGC-823 cells assessed as cells with green fluorescence at 1 uM incubated for 24 hrs by DCFH-DA staining based analysis relative to control; assay type: functional
SGC-7901 = assay: Antiproliferative activity against human SGC-7901 cells assessed as inhibition of cell proliferation incubated for 48 hrs by MTT assay; assay type: functional, cell-based; details: SGC-7901, 48 h
[11] = Acute toxicity in ip dosed ICR mouse assessed as animal death at 2.03 logarithm of dose; assay type: organism-based; details: in vivo
[12] = Binding affinity to DTT in PBS assessed as UV peak appearance at 288 nm at 360 uM by UV-Vis spectra analysis
[13] = Acute toxicity in ip dosed ICR mouse assessed as mortality rate by measuring ratio at 1.91 logarithm of dose relative to total number of mouse; assay type: organism-based; details: in vivo
BGC-823 [14] = assay: Antiproliferative activity against human BGC-823 cells assessed as inhibition of cell proliferation preincubated with H2O2 for 2 hrs followed by compound addition and measured after 48 hrs by MTT assay; assay type: functional, cell-based
BGC-823 [15] = assay: Induction of apoptosis in human BGC-823 cells assessed as early apoptotic cells at 1 uM incubated for 48 hrs by Annexin V-FITC/PI staining based flow cytometric analysis ( Rvb = 1.68 %); assay type: functional
[16] = Acute toxicity in ip dosed ICR mouse assessed as mortality rate by measuring ratio at 1.57 logarithm of dose relative to total number of mouse; assay type: organism-based; details: in vivo
BGC-823 [17] = assay: Induction of apoptosis in human BGC-823 cells assessed as viable cells at 1 uM incubated for 48 hrs by Annexin V-FITC/PI staining based flow cytometric analysis ( Rvb = 90.09 %); assay type: functional; details: read-out: Activity
[18] = Acute toxicity in ip dosed ICR mouse assessed as lethal dose; assay type: organism-based; details: in vivo
BGC-823 [19] = assay: Induction of apoptosis in human BGC-823 cells assessed as necrotic cells at 1 uM incubated for 48 hrs by Annexin V-FITC/PI staining based flow cytometric analysis ( Rvb = 1.79 %); assay type: functional
[20] = Acute toxicity in ip dosed ICR mouse assessed as mortality rate by measuring ratio at 2.04 logarithm of dose relative to total number of mouse; assay type: organism-based; details: in vivo
[21] = Acute toxicity in ip dosed ICR mouse assessed as mortality rate by measuring ratio at 2.16 logarithm of dose relative to total number of mouse; assay type: organism-based; details: in vivo
BGC-823 [22] = assay: Antitumor activity against human BGC-823 cells xenografted in BALB/c nude mouse assessed as tumor growth inhibition at 5 mg/kg, ip administered for 21 days relative to control; assay type: functional; details: BGC-823, 504 h, time 21 day, read-out: TGI
[23] = Selectivity index, ratio of IC50 for cytotoxicity against human GES1 cells to IC50 for antiproliferative activity against human BGC-823 cells in presence of H2O2; assay type: toxicity, cell-based; details: GES1 cells and BGC-823 cells, read-out: Ratio IC50
MGC-803 = assay: Antiproliferative activity against human MGC-803 cells assessed as inhibition of cell proliferation incubated for 48 hrs by MTT assay; assay type: functional, cell-based; details: MGC-803, 48 h

CC1(C)CC[C@]2(C(=O)OCCCCCCOC(=O)c3ccc(OCc4ccc(B5OC(C)(C)C(C)(C)O5)cc4)cc3)CC[C@]3(C)[C@H](C(=O)C=C4[C@@]5(C)C=C(C#N)C(=O)C(C)(C)[C@@H]5CC[C@]43C)[C@@H]2C1
IC50 at 48 h [1]: 4.7 µM
IC50 at 48 h [2]: 3.3 µM
IC50 (BGC-823 [3]): 3.2 µM
IC50 at 48 h [4]: 6.4 µM
IC50 (MCF7): 2.4 µM
IC50 (HepG2): 65 µM

CC1(C)CC[C@]2(C(=O)OCCCOC(=O)Cc3ccc(OCc4ccc(B5OC(C)(C)C(C)(C)O5)cc4)cc3)CC[C@]3(C)[C@H](C(=O)C=C4[C@@]5(C)C=C(C#N)C(=O)C(C)(C)[C@@H]5CC[C@]43C)[C@@H]2C1
IC50 at 48 h [1]: 2.2 µM
IC50 at 48 h [2]: 2.5 µM
IC50 (BGC-823 [3]): 1.6 µM
IC50 at 48 h [4]: 4.1 µM
IC50 (MCF7): 1.4 µM
IC50 (HepG2): 2.5 µM

CC1(C)CC[C@]2(C(=O)OCCCCCOC(=O)c3ccc(OCc4ccc(B5OC(C)(C)C(C)(C)O5)cc4)cc3)CC[C@]3(C)[C@H](C(=O)C=C4[C@@]5(C)C=C(C#N)C(=O)C(C)(C)[C@@H]5CC[C@]43C)[C@@H]2C1
IC50 at 48 h [1]: 2.8 µM
IC50 at 48 h [2]: 3.1 µM
IC50 (BGC-823 [3]): 2.1 µM
IC50 at 48 h [4]: 3.5 µM
IC50 (MCF7): 1.6 µM
IC50 (HepG2): 2.8 µM

COc1cc(C(=O)OCCCCOC(=O)[C@]23CCC(C)(C)C[C@H]2[C@H]2C(=O)C=C4[C@@]5(C)C=C(C#N)C(=O)C(C)(C)[C@@H]5CC[C@@]4(C)[C@]2(C)CC3)cc(OC)c1OCc1ccc(B2OC(C)(C)C(C)(C)O2)cc1
IC50 at 48 h [1]: 4.2 µM
IC50 at 48 h [2]: 4 µM
IC50 (BGC-823 [3]): 3.5 µM
IC50 at 48 h [4]: 6.1 µM
IC50 (MCF7): 3.5 µM
IC50 (HepG2): 5.4 µM

CC1(C)CC[C@]2(C(=O)OCCOC(=O)c3ccc(OCc4ccc(B5OC(C)(C)C(C)(C)O5)cc4)cc3)CC[C@]3(C)[C@H](C(=O)C=C4[C@@]5(C)C=C(C#N)C(=O)C(C)(C)[C@@H]5CC[C@]43C)[C@@H]2C1
IC50 at 48 h [1]: 4.7 µM
IC50 at 48 h [2]: 4 µM
IC50 (BGC-823 [3]): 3.8 µM
IC50 at 48 h [4]: 5 µM
IC50 (MCF7): 2.9 µM
IC50 (HepG2): 3.6 µM

COc1ccc(/C=C/CC(=O)OCCCOC(=O)[C@]23CCC(C)(C)C[C@H]2[C@H]2C(=O)C=C4[C@@]5(C)C=C(C#N)C(=O)C(C)(C)[C@@H]5CC[C@@]4(C)[C@]2(C)CC3)cc1OCc1ccc(B2OC(C)(C)C(C)(C)O2)cc1
IC50 at 48 h [1]: 6.6 µM
IC50 at 48 h [2]: 4 µM
IC50 (BGC-823 [3]): 5.5 µM
IC50 at 48 h [4]: 5 µM
IC50 (MCF7): 3.5 µM
IC50 (HepG2): 3.6 µM

CC1(C)CC[C@]2(C(=O)OCCCOC(=O)C/C=C/c3ccc(OCc4ccc(B5OC(C)(C)C(C)(C)O5)cc4)cc3)CC[C@]3(C)[C@H](C(=O)C=C4[C@@]5(C)C=C(C#N)C(=O)C(C)(C)[C@@H]5CC[C@]43C)[C@@H]2C1
IC50 at 48 h [1]: 6.9 µM
IC50 at 48 h [2]: 18.3 µM
IC50 (BGC-823 [3]): 8.7 µM
IC50 at 48 h [4]: 3.3 µM
IC50 (MCF7): 9.9 µM
IC50 (HepG2): 6.5 µM

CC1(C)CC[C@]2(C(=O)OCCc3ccc(OCc4ccc(B5OC(C)(C)C(C)(C)O5)cc4)cc3)CC[C@]3(C)[C@H](C(=O)C=C4[C@@]5(C)C=C(C#N)C(=O)C(C)(C)[C@@H]5CC[C@]43C)[C@@H]2C1
IC50 at 48 h [1]: 0.8 µM
IC50 at 48 h [2]: 1.7 µM
IC50 (BGC-823 [3]): 0.7 µM
IC50 at 48 h [4]: 2.1 µM
IC50 (MCF7): 1 µM
IC50 (HepG2): 2 µM

CC1(C)CC[C@]2(C(=O)OCCCOC(=O)c3ccc(OCc4ccc(B5OC(C)(C)C(C)(C)O5)cc4)cc3)CC[C@]3(C)[C@H](C(=O)C=C4[C@@]5(C)C=C(C#N)C(=O)C(C)(C)[C@@H]5CC[C@]43C)[C@@H]2C1
IC50 at 48 h [1]: 2.7 µM
IC50 at 48 h [2]: 3.1 µM
IC50 (BGC-823 [3]): 2 µM
IC50 at 48 h [4]: 3.6 µM
IC50 (MCF7): 1.5 µM
IC50 (HepG2): 3 µM

COc1cc(C(=O)OCCCCOC(=O)[C@]23CCC(C)(C)C[C@H]2[C@H]2C(=O)C=C4[C@@]5(C)C=C(C#N)C(=O)C(C)(C)[C@@H]5CC[C@@]4(C)[C@]2(C)CC3)ccc1OCc1ccc(B2OC(C)(C)C(C)(C)O2)cc1
IC50 at 48 h [1]: 9.2 µM
IC50 at 48 h [2]: 12.4 µM
IC50 (BGC-823 [3]): 8.3 µM
IC50 at 48 h [4]: 15.6 µM
IC50 (MCF7): 12.9 µM
IC50 (HepG2): 15.5 µM

COC(=O)[C@]12CCC(C)(C)C[C@H]1[C@H]1C(=O)C=C3[C@@]4(C)C=C(C#N)C(=O)C(C)(C)[C@@H]4CC[C@@]3(C)[C@]1(C)CC2 [BARDOXOLONE METHYL]
Ratio [5]: 0.6
Activity (BGC-823 [6]): 24.5%
Ratio [7]: 0.25
IC50 (NCI-N87): 0.8 µM
Activity [8]: Toxic
Activity [9]: Non-Toxic
Activity (BGC-823 [10]): 97.6%
IC50 (SGC-7901): 0.6 µM
IC50 at 48 h [1]: 0.4 µM
Activity [11]: Toxic
IC50 at 48 h [2]: 0.8 µM
Activity [12]: Active
Ratio [13]: 0.67
IC50 (BGC-823 [14]): 0.5 µM
Activity (BGC-823 [15]): 6.59%
Ratio [16]: 0
viability at 1 µM (BGC-823 [17]): 61.3%
LD50 [18]: 61.7 mg/kg
Activity (BGC-823 [19]): 7.6%
Ratio [20]: 0.83
Ratio [21]: 1
inhibition in vivo at 5 mg/kg (BGC-823 [22]): 51.7%
IC50 (BGC-823 [3]): 0.5 µM
IC50 at 48 h [4]: 0.4 µM
selectivity ratio [23]: 1
IC50 (MCF7): 1.2 µM
IC50 (MGC-803): 0.9 µM
IC50 (HepG2): 0.5 µM

CC1(C)CC[C@]2(C(=O)OCCCOc3ccc(NC(=O)OCc4ccc(B5OC(C)(C)C(C)(C)O5)cc4)cc3)CC[C@]3(C)[C@H](C(=O)C=C4[C@@]5(C)C=C(C#N)C(=O)C(C)(C)[C@@H]5CC[C@]43C)[C@@H]2C1
IC50 at 48 h [1]: 1.5 µM
IC50 at 48 h [2]: 1.8 µM
IC50 (BGC-823 [3]): 1.2 µM
IC50 at 48 h [4]: 3.5 µM
IC50 (MCF7): 1.1 µM
IC50 (HepG2): 2.8 µM

CC1(C)CC[C@]2(C(=O)OCCCCCOc3ccc(NC(=O)OCc4ccc(B5OC(C)(C)C(C)(C)O5)cc4)cc3)CC[C@]3(C)[C@H](C(=O)C=C4[C@@]5(C)C=C(C#N)C(=O)C(C)(C)[C@@H]5CC[C@]43C)[C@@H]2C1
IC50 (NCI-N87): 1.6 µM
IC50 (SGC-7901): 3.1 µM
IC50 at 48 h [1]: 3 µM
IC50 at 48 h [2]: 5.9 µM
IC50 (BGC-823 [14]): 0.8 µM
IC50 (BGC-823 [3]): 1.4 µM
IC50 at 48 h [4]: 4.9 µM
selectivity ratio [23]: 3.75
IC50 (MCF7): 2.7 µM
IC50 (MGC-803): 2.7 µM
IC50 (HepG2): 3.9 µM

COc1cc(/C=C/CC(=O)OCCCOC(=O)[C@]23CCC(C)(C)C[C@H]2[C@H]2C(=O)C=C4[C@@]5(C)C=C(C#N)C(=O)C(C)(C)[C@@H]5CC[C@@]4(C)[C@]2(C)CC3)ccc1OCc1ccc(B2OC(C)(C)C(C)(C)O2)cc1
IC50 at 48 h [1]: 4.2 µM
IC50 at 48 h [2]: 2.4 µM
IC50 (BGC-823 [3]): 2.3 µM
IC50 at 48 h [4]: 5.6 µM
IC50 (MCF7): 29 µM
IC50 (HepG2): 5.5 µM
